In paper PMC3607609 (PLoS ONE, 2013):
Several values for one entry are separate records, joined by “and”; a condition that tells them apart may be missing. Equal entries are not always repeated. Entries after “also recorded” stand apart in the source; their conditions may differ. Where two headings read alike, the source gives them in different places. Positions of bridges follow the written chain, without caps; N, C: chain ends. Residues, ends and D or L forms follow the SMILES beside them.

What was measured:
L-type channels = tested on: L-type channels; design: method as in PMID 10991994, PMID 7565636; details: cited from earlier work
[1] = tested on: resistant KCl-evoked Ca^2+ responses in SH-SY5Y cells; experiment: cells; format: cell-based, human; details: for IC50: Homo sapiens, SH-SY5Y, read-out: Ca2+ inhibition IC50, resistant responses
Cav3 = tested on: Cav3; design: method as in PMID 10991994, PMID 9481480; details: different systems; cited from earlier work
[2] = tested on: Cav channels endogenously expressed in SH-SY5Y cells; format: cell-based, human
[3] = target: Cav1 channels endogenously expressed in SH-SY5Y cells (Homo sapiens, UniProt Q01668); experiment: Inhibition of KCl-evoked Cav1 Ca2+ responses in presence of CVID, FLIPR-Tetra; format: cell-based; details: in presence of saturating CVID
[4] = target: Cav2.2 channels endogenously expressed in SH-SY5Y cells (Homo sapiens, UniProt Q00975); experiment: cell-based
[5] = target: Cav2.2 expressed in SH-SY5Y whole cell (Homo sapiens, UniProt Q00975); experiment: cell-based; format: binding
[6] = target: Cav2.2 expressed in rat brain (Rattus norvegicus, UniProt Q02294); experiment: biochemical; format: binding, rat (male Wistar)
[7] = target: Cav2.2 expressed in SH-SY5Y membranes (Homo sapiens, UniProt Q00975); experiment: biochemical; format: binding
α2δ = tested on: α2δ; design: method as in PMID 19559597; details: cited from earlier work
[8] = in presence of CVID and nifedipine, agatoxins and SNX 482 up to 10 µM, mibefradil 30 µM

Sequence of Cav2.2 expressed in rat brain (Q02294 whole entry, looked up): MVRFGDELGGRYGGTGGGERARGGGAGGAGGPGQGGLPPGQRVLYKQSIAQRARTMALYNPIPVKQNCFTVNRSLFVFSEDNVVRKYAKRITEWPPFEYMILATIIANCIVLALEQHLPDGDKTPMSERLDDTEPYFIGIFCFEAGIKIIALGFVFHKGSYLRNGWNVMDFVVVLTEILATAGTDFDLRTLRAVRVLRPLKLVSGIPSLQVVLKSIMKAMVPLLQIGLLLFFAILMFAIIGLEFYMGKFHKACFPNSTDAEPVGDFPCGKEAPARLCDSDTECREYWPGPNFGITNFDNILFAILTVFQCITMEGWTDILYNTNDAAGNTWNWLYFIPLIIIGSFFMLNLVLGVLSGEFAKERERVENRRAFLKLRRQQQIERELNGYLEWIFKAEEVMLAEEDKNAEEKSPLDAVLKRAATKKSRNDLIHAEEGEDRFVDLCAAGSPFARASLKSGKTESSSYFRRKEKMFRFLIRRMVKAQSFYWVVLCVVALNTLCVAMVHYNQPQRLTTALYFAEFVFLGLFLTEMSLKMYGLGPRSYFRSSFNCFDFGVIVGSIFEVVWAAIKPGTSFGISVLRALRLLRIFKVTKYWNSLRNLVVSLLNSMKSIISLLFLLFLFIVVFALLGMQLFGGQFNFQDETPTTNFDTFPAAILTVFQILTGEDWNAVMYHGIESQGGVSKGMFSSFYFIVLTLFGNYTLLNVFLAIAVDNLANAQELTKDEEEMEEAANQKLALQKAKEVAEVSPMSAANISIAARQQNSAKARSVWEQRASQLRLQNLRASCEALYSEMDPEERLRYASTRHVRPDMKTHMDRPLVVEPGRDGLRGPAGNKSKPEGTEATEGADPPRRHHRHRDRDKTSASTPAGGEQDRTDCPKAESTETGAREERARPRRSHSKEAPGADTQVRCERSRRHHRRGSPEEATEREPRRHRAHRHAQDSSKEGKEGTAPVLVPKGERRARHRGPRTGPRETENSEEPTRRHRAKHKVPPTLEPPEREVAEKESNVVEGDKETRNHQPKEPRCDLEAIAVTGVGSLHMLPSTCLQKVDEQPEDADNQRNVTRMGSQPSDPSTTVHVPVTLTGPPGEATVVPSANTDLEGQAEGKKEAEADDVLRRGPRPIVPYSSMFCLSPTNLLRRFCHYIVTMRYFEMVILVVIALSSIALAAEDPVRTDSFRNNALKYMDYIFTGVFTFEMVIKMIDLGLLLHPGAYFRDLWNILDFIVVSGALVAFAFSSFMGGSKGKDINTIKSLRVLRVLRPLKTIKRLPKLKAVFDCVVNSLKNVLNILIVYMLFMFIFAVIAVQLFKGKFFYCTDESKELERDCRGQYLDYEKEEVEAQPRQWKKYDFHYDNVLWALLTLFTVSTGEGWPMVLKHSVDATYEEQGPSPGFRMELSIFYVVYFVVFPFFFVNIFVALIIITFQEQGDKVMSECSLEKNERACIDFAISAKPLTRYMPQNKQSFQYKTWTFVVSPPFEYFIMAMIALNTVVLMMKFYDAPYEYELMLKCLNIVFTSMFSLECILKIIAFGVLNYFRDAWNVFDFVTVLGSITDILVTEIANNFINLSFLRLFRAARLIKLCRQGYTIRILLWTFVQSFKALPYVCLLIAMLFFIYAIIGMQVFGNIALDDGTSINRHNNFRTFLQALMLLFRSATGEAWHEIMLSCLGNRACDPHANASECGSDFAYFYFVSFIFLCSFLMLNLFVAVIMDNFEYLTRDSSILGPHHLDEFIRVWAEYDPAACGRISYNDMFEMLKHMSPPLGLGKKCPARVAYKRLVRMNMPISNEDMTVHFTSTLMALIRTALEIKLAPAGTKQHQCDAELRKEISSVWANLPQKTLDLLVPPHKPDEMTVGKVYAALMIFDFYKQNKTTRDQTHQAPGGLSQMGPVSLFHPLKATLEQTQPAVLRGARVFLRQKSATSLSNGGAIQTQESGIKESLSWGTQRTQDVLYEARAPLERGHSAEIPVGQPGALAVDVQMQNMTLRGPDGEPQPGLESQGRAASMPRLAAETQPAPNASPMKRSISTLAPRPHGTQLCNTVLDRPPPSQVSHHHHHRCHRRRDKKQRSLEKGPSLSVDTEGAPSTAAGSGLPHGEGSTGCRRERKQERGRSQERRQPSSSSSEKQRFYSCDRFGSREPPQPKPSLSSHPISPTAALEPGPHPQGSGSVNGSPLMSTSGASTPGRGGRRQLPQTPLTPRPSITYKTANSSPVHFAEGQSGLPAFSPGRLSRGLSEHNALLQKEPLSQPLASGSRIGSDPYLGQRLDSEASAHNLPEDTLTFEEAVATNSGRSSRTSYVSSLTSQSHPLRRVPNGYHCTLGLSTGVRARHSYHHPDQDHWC
Sequence of Cav2.2 expressed in SH-SY5Y membranes (Q00975 whole entry, looked up): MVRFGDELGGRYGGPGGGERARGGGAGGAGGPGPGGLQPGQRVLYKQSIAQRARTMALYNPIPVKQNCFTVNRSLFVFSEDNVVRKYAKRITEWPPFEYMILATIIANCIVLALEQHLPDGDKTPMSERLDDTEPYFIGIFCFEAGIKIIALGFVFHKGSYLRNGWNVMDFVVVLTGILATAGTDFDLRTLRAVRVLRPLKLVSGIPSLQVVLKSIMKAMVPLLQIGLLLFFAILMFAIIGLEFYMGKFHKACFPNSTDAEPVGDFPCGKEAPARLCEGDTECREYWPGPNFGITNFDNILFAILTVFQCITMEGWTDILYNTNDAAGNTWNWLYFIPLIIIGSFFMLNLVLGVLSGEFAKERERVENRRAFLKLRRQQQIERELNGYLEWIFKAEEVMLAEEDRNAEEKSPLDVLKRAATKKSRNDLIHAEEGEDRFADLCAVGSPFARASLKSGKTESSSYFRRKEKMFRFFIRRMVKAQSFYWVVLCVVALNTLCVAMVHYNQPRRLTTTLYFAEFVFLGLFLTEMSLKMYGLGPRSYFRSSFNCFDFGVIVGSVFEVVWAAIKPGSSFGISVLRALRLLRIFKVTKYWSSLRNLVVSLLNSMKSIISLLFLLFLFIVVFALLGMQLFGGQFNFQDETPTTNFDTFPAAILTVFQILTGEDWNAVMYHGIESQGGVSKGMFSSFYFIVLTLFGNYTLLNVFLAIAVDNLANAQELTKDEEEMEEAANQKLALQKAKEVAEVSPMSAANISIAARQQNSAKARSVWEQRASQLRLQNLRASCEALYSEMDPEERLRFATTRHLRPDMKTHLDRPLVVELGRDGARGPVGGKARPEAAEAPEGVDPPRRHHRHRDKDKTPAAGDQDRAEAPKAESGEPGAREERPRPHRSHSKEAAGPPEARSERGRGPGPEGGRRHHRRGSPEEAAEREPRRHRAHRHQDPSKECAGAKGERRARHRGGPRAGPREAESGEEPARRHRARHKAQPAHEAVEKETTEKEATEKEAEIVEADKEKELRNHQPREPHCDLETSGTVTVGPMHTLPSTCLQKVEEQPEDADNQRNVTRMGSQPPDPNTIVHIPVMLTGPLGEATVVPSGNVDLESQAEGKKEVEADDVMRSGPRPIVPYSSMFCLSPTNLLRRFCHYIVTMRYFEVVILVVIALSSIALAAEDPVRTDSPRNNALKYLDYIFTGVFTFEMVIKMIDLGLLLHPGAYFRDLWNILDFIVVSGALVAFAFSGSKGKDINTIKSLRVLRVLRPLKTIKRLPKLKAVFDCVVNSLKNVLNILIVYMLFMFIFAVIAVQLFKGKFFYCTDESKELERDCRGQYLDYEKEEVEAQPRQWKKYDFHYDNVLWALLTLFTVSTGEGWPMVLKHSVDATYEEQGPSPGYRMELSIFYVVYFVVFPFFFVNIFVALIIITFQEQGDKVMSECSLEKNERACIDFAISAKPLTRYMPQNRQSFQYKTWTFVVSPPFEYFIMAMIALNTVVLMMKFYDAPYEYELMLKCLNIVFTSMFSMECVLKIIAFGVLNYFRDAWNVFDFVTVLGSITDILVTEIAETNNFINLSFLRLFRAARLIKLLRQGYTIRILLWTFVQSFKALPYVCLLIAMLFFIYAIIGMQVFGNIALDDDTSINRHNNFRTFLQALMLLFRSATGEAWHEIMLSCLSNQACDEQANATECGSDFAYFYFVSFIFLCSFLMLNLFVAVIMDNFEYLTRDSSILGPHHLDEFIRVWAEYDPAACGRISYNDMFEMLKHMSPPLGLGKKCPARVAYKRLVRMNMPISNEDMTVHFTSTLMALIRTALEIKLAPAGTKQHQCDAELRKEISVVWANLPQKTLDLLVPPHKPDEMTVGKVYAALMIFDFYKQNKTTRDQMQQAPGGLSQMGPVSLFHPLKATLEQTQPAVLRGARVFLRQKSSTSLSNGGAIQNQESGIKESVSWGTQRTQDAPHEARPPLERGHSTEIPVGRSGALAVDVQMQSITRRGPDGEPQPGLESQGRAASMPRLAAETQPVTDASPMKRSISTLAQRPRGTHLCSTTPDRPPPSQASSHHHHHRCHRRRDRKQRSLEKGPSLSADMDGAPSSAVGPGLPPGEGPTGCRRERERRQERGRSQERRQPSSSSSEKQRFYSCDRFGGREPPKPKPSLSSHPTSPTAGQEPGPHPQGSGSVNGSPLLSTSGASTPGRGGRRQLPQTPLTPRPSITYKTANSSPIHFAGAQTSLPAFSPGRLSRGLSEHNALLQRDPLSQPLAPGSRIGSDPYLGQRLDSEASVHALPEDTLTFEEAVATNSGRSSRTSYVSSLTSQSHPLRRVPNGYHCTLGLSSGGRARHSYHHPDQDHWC
Sequence of Cav2.2 channels endogenously expressed in SH-SY5Y cells (Q00975 whole entry, looked up): as above
Sequence of Cav2.2 expressed in SH-SY5Y whole cell (Q00975 whole entry, looked up): as above

O=c1[nH]c2ccccc2n1C1CCN(CCCC(c2ccc(F)cc2)c2ccc(F)cc2)CC1 [pimozide]
Inhibition of L-type channels (in words) (L-type channels): also inhibit L-type channels
IC50 [1]: 1300 ± 97 nM
Effect on resistant KCl-evoked Ca2+ responses (in words) [1, 8]: fully inhibited the remaining responses; also recorded: completely abolished

COCC(=O)O[C@]1(CCN(C)CCCc2nc3ccccc3[nH]2)CCc2cc(F)ccc2[C@@H]1C(C)C [mibefradil]
Inhibition of Cav3 responses (in words) (Cav3): weak affinity
Inhibition of L-type channels (in words) (L-type channels): also inhibit L-type channels
IC50 [1]: 3000 ± 31 nM
Effect on resistant KCl-evoked Ca2+ responses (in words) [1, 8]: fully inhibited these remaining responses; also recorded: completely abolished

KCl
Hill slope [2]: 2.5 and 2.9 and 3.5
KCl-evoked Ca2+ response (in words) [2]: evoked a large transient response; also recorded: elicits maximal Cav1 and Cav2.2 responses
pEC50 for KCl-mediated stimulation [2]: 1.69±0.12
EC50 ([2]; read-out: Ca2+ stimulation EC50): 17.3 ± 3.41 mM

SNX 482
Ca2+ inhibition IC50, resistant responses [1]: NDR
Effect on resistant KCl-evoked Ca2+ responses (in words) [1]: no significant inhibitory effect; also recorded: not blocked

ω-agatoxin IVA
Effect on resistant KCl-evoked Ca2+ responses (in words) [1]: did not significantly affect KCl-evoked Ca^2+ responses

COC(=O)C1=C(C)NC(C)=C(C(=O)OC)C1c1ccccc1[N+](=O)[O-] [nifedipine]
Block of L-type KCl responses (in words) [3]: concentration-dependently blocked KCl responses

C[C@@H](O)[C@@H]1NC(=O)[C@H](Cc2ccc(O)cc2)NC(=O)[C@@H]2C[C@@H](O)CN2C(=O)[C@H](CC(N)=O)NC(=O)[C@@H]2CSSC[C@@H]3NC(=O)[C@H](CO)NC(=O)[C@H](CO)NC(=O)CNC(=O)[C@@H]4C[C@@H](O)CN4C(=O)[C@H](CO)NC(=O)[C@H](CCCCN)NC(=O)[C@@H](N)CSSC[C@H](NC(=O)[C@H](CSSC[C@@H](C(=O)N[C@@H](Cc4ccc(O)cc4)C(N)=O)NC(=O)[C@H](CCCN=C(N)N)NC(=O)[C@H](CCCCN)NC1=O)NC(=O)[C@H](CC(N)=O)NC(=O)[C@H](Cc1ccc(O)cc1)NC(=O)[C@H](CO)NC(=O)[C@H]([C@@H](C)O)NC(=O)[C@@H]1C[C@@H](O)CN1C(=O)[C@H](CO)NC3=O)C(=O)N[C@@H](CCCN=C(N)N)C(=O)N[C@@H](CO)C(=O)N2 [GVIA]
IC50 [4]: 150 ± 90 nM
Kd [5]: 0.27 ± 0.084 nM
IC50 [6]: 0.0372 nM
IC50 [7]: 0.0282 nM

ω-agatoxin
Effect on resistant KCl-evoked Ca2+ responses (in words) [1]: not blocked

NCC1(CC(=O)O)CCCCC1 [gabapentin]
Effect of α2δ binding on Cav2.2 trafficking and pain (in words) (α2δ): reducing Cav2.2 trafficking and the symptoms of pain

CSCC[C@@H]1NC(=O)[C@H](CC(C)C)NC(=O)[C@H](CCCCN)NC(=O)[C@H](CO)NC(=O)[C@@H]2CSSC[C@@H]3NC(=O)[C@H](CO)NC(=O)CNC(=O)[C@H](CO)NC(=O)[C@H](CSSC[C@H](N)C(=O)N[C@@H](CCCCN)C(=O)N[C@@H](CO)C(=O)N[C@@H](CCCCN)C(=O)NCC(=O)N[C@@H](C)C(=O)N[C@@H](CCCCN)C(=O)N2)NC(=O)[C@H](CSSC[C@@H](C(N)=O)NC(=O)[C@H](CCCNC(=N)N)NC(=O)CNC(=O)[C@H](C(C)C)NC(=O)[C@H]([C@@H](C)O)NC(=O)CNC(=O)[C@H](CO)NC3=O)NC(=O)[C@H](CC(=O)O)NC(=O)[C@H](Cc2ccc(O)cc2)NC1=O [CVID] (H-CKSKGAKCSKLMYDCCSGSCSGTVGRC-NH2; disulfide 1-16, 8-20, 15-27)
IC50 [4]: 160 ± 25 nM
Kd [5]: 3.2 ± 0.2 nM
IC50 [6]: 0.0295 nM
IC50 [7]: 0.00309 nM
